# Biological target: T1, interaction between rDIII and ~ 15 kDa receptor of hBMECs (West Nile virus, UniProt P06935)
# T1 construct: rDIII – recombinant domain III; made in house; host or cells: E. coli M15
# T1 sequence (P06935 584-692 limits assumed): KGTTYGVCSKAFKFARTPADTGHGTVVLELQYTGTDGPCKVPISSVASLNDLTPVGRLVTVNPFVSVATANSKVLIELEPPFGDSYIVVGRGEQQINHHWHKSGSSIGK
# Assay: Blocking of interaction between rDIII and proteins of hBMECs by peptides (Western blot)
# Assay type: binding, West Nile virus / human
# Settings: 2.5 µg (0.19 nM) rDIII pre-incubated with tenfold molar excess (1.9 nM) of peptide
# Method: First, concentration-dependent ELISA and Western blot were performed to get the minimum concentration of rDIII required to show its interaction with hBMECs proteins. Details are presented in Supplementary Method S12 and Supplementary Method S13. Subsequently, the ability of 7-mer and 12-mer peptides to block the interaction between rDIII and proteins of hBMECs was tested. A tenfold molar excess of peptides was incubated with rDIII for 1 h at room temperature. Such pre-incubated rDIII was subsequently used in the assays. Details of both methods are described in Supplementary Method S12 and Supplementary Method S13. […]
# Blocking of interaction between rDIII and proteins of hBMECs by peptides (Western blot).
# Two hundred micrograms of proteins extracted from hBMECs were separated on 2-well PAGE […]
# gel (12% polyacrylamide gel) and transferred on 0.45 μm nitrocellulose membrane (Amersham Protran; GE Healthcare) for 1 h at 30 V. Details of LDS-PAGE are described in Supplementary Methods S7. The membrane was cut horizontally to obtain proteins of molecular weight between ~10 kDa to ~25 kDa. Subsequently, this membrane was sliced vertically to obtain 0.3 cm strips, which were then used in Western blot (Supplementary Fig.
# The NC strips with transblotted hBMECs proteins were first incubated with rDIII at various concentrations to find out the minimal concentration of rDIII required to detect the interaction with hBMECs proteins. Non-specific binding sites were blocked with 1% BSA in 0.05% TBST (pH 7.2) for 1 h at room temperature and constant shaking followed by a washing step for 5 min with 0.05% TBST. The NC strips were incubated with rDIII at different concentrations (5 µg, 2.5 µg, 2 µg, 1 µg, 500 ng) diluted in 1 mL of 0.05% TBST for 3 h at room temperature and constant shaking. After 3 washings with 0.05% TBST, strips were incubated with HisProbe-HRP conjugate (1:5,000 dilution in 0.1% BSA in 0.05% TBST; Thermo Fisher Scientific) for 30 min at room temperature. Six washings, each of 5 min were performed before incubating the strips in SuperSignal chemiluminescence substrate (Thermo Fisher Scientific). The signal was captured on the C-DiGit Blot Scanner (Odyssey CLx, LI-COR Biosciences). For negative control, rDIII was excluded from the above-mentioned protocol.
# To block the interaction, the NC strips were blocked as described above.
# Simultaneously, 2.5 µg (0.19 nM) of rDIII were pre-incubated with 2.75 µg of each peptide (10-fold molar excess; 1.9 nM) in TBS for 1 h at room temperature. Further on, strips were incubated with pre-incubated rDIII for 3 h at room temperature with constant shaking. After 3 washings with 0.05% TBST, strips were incubated with HisProbe-HRP conjugate as described above. […]
compound,measurement,value
"CC[C@H](C)[C@@H]1NC(=O)[C@@H](NC(=O)[C@H](C)N)CSSC[C@@H](C(=O)NCC(=O)NCC(=O)NCC(=O)N[C@@H](CO)C(=O)O)NC(=O)[C@H](C)NC(=O)[C@H](CCCNC(=N)N)NC(=O)[C@H]([C@@H](C)O)NC(=O)[C@H](CO)NC(=O)[C@H](CO)NC(=O)[C@H](Cc2c[nH]cn2)NC1=O [CP4, CIHSSTRAC]",inhibition of the interaction between rDIII and ~ 15 kDa hBMECs receptor (Western blot),inhibition of the interaction was confirmed
